Several values for one entry are separate records, joined by “and”; a condition that tells them apart may be missing. Equal entries are not always repeated. Where two headings read alike, the source gives them in different places.

In the test the target is T1, GK (glucokinase, residues 12-465) (Homo sapiens, UniProt P35557).
T1 construct: I.D. No. 1 corresponds to residues 12-465 of glucokinase; made in house; host or cells: DH10b-T1r E. coli
T1 sequence (P35557 with tags, fused parts or gaps isoform P35557-2): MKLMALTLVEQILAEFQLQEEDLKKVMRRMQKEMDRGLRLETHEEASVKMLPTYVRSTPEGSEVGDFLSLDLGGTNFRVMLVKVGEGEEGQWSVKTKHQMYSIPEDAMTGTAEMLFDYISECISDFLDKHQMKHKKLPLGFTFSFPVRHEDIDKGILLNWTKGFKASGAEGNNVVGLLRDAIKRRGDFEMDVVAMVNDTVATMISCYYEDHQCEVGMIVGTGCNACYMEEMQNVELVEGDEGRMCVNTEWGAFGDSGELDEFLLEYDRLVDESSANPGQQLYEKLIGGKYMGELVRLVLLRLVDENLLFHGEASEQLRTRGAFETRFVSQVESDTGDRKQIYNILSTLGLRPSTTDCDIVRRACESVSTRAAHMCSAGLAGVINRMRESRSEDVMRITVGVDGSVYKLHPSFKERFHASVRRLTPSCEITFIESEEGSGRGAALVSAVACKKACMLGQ
Put plainly: enzymatic glucokinase activity assay (ATP consumption, KinaseGlo luminescence). Conditions: 5 μM ATP, 5 mM Glucose, reported as bins; for EC50: Kact = concentration that displays 50% of the maximal increase in GK activity, 60 min, room temperature, read-out: pKact. The test is classed as biochemical. A digest of the protocol: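 E. coli-expressed recombinant GK purified by two anion-exchange steps. Reaction in 25 mM Hepes pH 7.2, 10 mM MgCl2, 1 mM DTT, 5 μM ATP, 5 mM glucose, 2% DMSO, 60 min at room temperature. ATP consumption quantified by KinaseGlo luminescence; pKact and % ACTmax derived by non-linear curve fitting.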

Setting [1] is: calculated maximal gain in GK enzyme activity at a saturating concentration of the compound, read-out: % ACTmax.
Setting [2] is: read-out: % ACTmax, calculated maximal gain in GK enzyme activity at a saturating concentration of the compound.

Take `O=C(Nc1cnccn1)C(CC1CCOCC1)n1ncc2c(S(=O)(=O)C3CC3)cc(F)cc21` (stereo not drawn) [Compound 103, 2-(4-(cyclopropylsulfonyl)-6-fluoro-1H-indazol-1-yl)-N-(pyrazin-2-yl)-3-(tetrahydro-2H-pyran-4-yl)propanamide]: the EC50 fell in the range of 1.58 to 3.16 µM. Besides, under setting [1], the Emax was 101 to 105%.

Take `O=C(Nc1ncc(Cl)s1)[C@H](CC1CCOCC1)n1cc(S(=O)(=O)C2CC2)cn1` [Compound 42, (S)-N-(5-chlorothiazol-2-yl)-2-(4-(cyclopropylsulfonyl)-1H-pyrazol-1-yl)-3-(tetrahydro-2H-pyran-4-yl)propanamide]: the EC50 lay within 1.58 to 3.16 µM. For the same compound, the Emax under setting [1] is at least 111%.

Turning to `O=C(Nc1ncc(F)s1)[C@H](CC1CCOCC1)n1ncc2c(S(=O)(=O)C3CC3)cncc21` [Compound 84, (S)-2-(4-(cyclopropylsulfonyl)-1H-pyrazolo[3,4-c]pyridin-1-yl)-N-(5-fluorothiazol-2-yl)-3-(tetrahydro-2H-pyran-4-yl)propanamide], the EC50 was at most 0.316 µM. The Emax under setting [2] was 106 to 110%.

In the case of `O=C1CC[C@H](C[C@H](C(=O)Nc2ncc(Cl)s2)n2ncc3c(S(=O)(=O)C4CC4)cccc32)C1` [Compound 114, (R)-N-(5-chlorothiazol-2-yl)-2-(4-(cyclopropylsulfonyl)-1H-indazol-1-yl)-3-((R)-3-oxocyclopentyl)propanamide], the EC50 was at most 0.316 µM. Moreover, the Emax under setting [1] was 101 to 105%.

Turning to `O=C(Nc1ncc(F)s1)C(CC1CCOCC1)n1ncc2c(S(=O)(=O)C3CC3)c(O)ccc21` (stereo not drawn) [Compound 144, 2-(4-(cyclopropylsulfonyl)-5-hydroxy-1H-indazol-1-yl)-N-(5-fluorothiazol-2-yl)-3-(tetrahydro-2H-pyran-4-yl)propanamide], the EC50 was at most 0.316 µM. In addition, under setting [1], the Emax is 106 to 110%.

For `O=C(Nc1ncc(F)s1)C(CC1CCOCC1)n1cc2c(S(=O)(=O)C3CC3)cncc2n1` (stereo not drawn) [Compound 140, 2-(4-(cyclopropylsulfonyl)-2H-pyrazol[3,4-c]pyridin-2-yl)-N-(5-fluorothiazol-2-yl)-3-(tetrahydro-2H-pyran-4-yl)propanamide], the EC50 is at least 15.8 µM. The Emax under setting [1] was at most 90%.

For the compound `O=C(Nc1ccncn1)C(CC1CCOCC1)n1ncc2c(S(=O)(=O)C3CC3)cccc21` (stereo not drawn) [Compound 124, 2-(4-(cyclopropylsulfonyl)-1H-indazol-1-yl)-N-(pyrimidin-4-yl)-3-(tetrahydro-2H-pyran-4-yl)propanamide], the EC50 lay within 3.98 to 12.6 µM. The Emax under setting [1] is at least 111%.

As to `O=C(Nc1ncc(F)cc1F)C(CC1CCOCC1)n1ncc2c(S(=O)(=O)C3CC3)cccc21` (stereo not drawn) [Compound 88, 2-(4-(cyclopropylsulfonyl)-1H-indazol-1-yl)-N-(3,5-difluoropyridin-2-yl)-3-(tetrahydro-2H-pyran-4-yl)propanamide], the EC50 is at least 15.8 µM. Further, the Emax under setting [1] was at most 90%.

Take `COc1cc(S(=O)(=O)C2CC2)c2cnn(C(CC3CCOCC3)C(=O)Nc3ncc(F)s3)c2c1` (stereo not drawn) [Compound 72, 2-(4-(cyclopropylsulfonyl)-6-methoxy-1H-indazol-1-yl)-N-(5-fluorothiazol-2-yl)-3-(tetrahydro-2H-pyran-4-yl)propanamide]: the EC50 is at most 0.316 µM. Also, the Emax under setting [1] was at most 90%.

For the compound `O=C1CC[C@H](C[C@@H](C(=O)Nc2ncc(F)s2)n2cc(S(=O)(=O)C3CC3)cn2)C1` [Compound 54, (S)-2-(4-(cyclopropylsulfonyl)-1H-pyrazol-1-yl)-N-(5-fluorothiazol-2-yl)-3-((R)-3-oxocyclopentyl)propanamide], the EC50 was 3.98 to 12.6 µM. Besides, under setting [1], the Emax was at most 90%.

`Cc1cc(NC(=O)C(CC2CCOCC2)n2ncc3c(S(=O)(=O)C4CC4)cccc32)nn1C` (stereo not drawn) [Compound 134, 2-(4-(cyclopropylsulfonyl)-1H-indazol-1-yl)-N-(1,5-dimethyl-1H-pyrazol-3-yl)-3-(tetrahydro-2H-pyran-4-yl)propanamide]: the EC50 lay within 1.58 to 3.16 µM. Also, under setting [1], the Emax is at least 111%.

On to `O=C(Nc1ncc(Cl)s1)[C@@H](CC1CCOCC1)n1cc(S(=O)(=O)C2CC2)cn1` [Compound 40, (R)-N-(5-chlorothiazol-2-yl)-2-(4-(cyclopropylsulfonyl)-1H-pyrazol-1-yl)-3-(tetrahydro-2H-pyran-4-yl)propanamide], for which the EC50 is at least 15.8 µM. The Emax under setting [1] was at most 90%.

With `O=C(Nc1ncc(Cl)s1)C(CC1CCOCC1)n1cc(S(=O)(=O)C2CCCC2)cn1` (stereo not drawn) [Compound 5, N-(5-chlorothiazol-2-yl)-2-(4-(cyclopentylsulfonyl)-1H-pyrazol-1-yl)-3-(tetrahydro-2H-pyran-4-yl)propanamide], the EC50 fell in the range of 0.398 to 1.26 µM. Besides, under setting [2], the Emax was at least 111%.

Take `N#Cc1cc(S(=O)(=O)C2CC2)c2cnn([C@H](CC3CCOCC3)C(=O)Nc3ncc(F)s3)c2c1` [Compound 132, (R)-2-(6-cyano-4-(cyclopropylsulfonyl)-1H-indazol-1-yl)-N-(5-fluorothiazol-2-yl)-3-(tetrahydro-2H-pyran-4-yl)propanamide]: the EC50 fell in the range of 1.58 to 3.16 µM. The Emax under setting [1] was 90 to 100%.

Turning to `Cn1ccc(NC(=O)[C@H](CC2CCOCC2)n2ncc3c(S(=O)(=O)C4CC4)cc(C#N)cc32)n1` [Compound 105, (S)-2-(6-cyano-4-(cyclopropylsulfonyl)-1H-indazol-1-yl)-N-(1-methyl-1H-pyrazol-3-yl)-3-(tetrahydro-2H-pyran-4-yl)propanamide], the EC50 was 0.398 to 1.26 µM and ≤ 0.316 µM. Besides, the Emax under setting [1] was at most 90%.

Take `O=C(Nc1ncc(F)s1)C(CC1CCOCC1)n1ncc2c(S(=O)(=O)C3CC3)ccnc21` (stereo not drawn) [Compound 127, 2-(4-(cyclopropylsulfonyl)-1H-pyrazolo[3,4-b]pyridin-1-yl)-N-(5-fluorothiazol-2-yl)-3-(tetrahydro-2H-pyran-4-yl)propanamide]: the EC50 was at most 0.316 µM. Besides, under setting [1], the Emax is 101 to 105%.

As to `O=C(Nc1ncc(Cl)s1)C(CC1CCOCC1)n1cc(S(=O)(=O)C2CC2)cn1` (stereo not drawn) [Compound 4, N-(5-chlorothiazol-2-yl)-2-(4-(cyclopropylsulfonyl)-1H-pyrazol-1-yl)-3-(tetrahydro-2H-pyran-4-yl)propanamide], the EC50 is 3.98 to 12.6 µM. For the same compound, the Emax under setting [2] is 101 to 105%.

For the compound `N#Cc1cc(S(=O)(=O)C2CC2)c2cnn(C(CC3CCOCC3)C(=O)Nc3cnccn3)c2c1` (stereo not drawn) [Compound 100, 2-(6-cyano-4-(cyclopropylsulfonyl)-1H-indazol-1-yl)-N-(pyrazin-2-yl)-3-(tetrahydro-2H-pyran-4-yl)propanamide], the EC50 fell in the range of 0.398 to 1.26 µM. The Emax under setting [1] is at most 90%.

Regarding `O=C(Nc1ncc(F)s1)[C@H](CC1CCOCC1)n1ncc2c(S(=O)(=O)C3CC3)cc(F)cc21` [Compound 123, (S)-2-(4-(cyclopropylsulfonyl)-6-fluoro-1H-indazol-1-yl)-N-(5-fluorothiazol-2-yl)-3-(tetrahydro-2H-pyran-4-yl)propanamide], the EC50 was at most 0.316 µM. The Emax under setting [1] is at least 111%.

In the case of `NC(=O)c1ccc(NC(=O)[C@H](CC2CCOCC2)n2ncc3c(S(=O)(=O)C4CC4)cccc32)nc1` [Compound 107, (S)-6-(2-(4-(cyclopropylsulfonyl)-1H-indazol-1-yl)-3-(tetrahydro-2H-pyran-4-yl)propanamido)nicotinamide], the EC50 is at most 0.316 µM. The Emax under setting [2] was at least 111%.

`Cn1ccc(NC(=O)C(CC2CCOCC2)n2ncc3c(S(=O)(=O)C4CC4)cc(OC(F)F)cc32)n1` (stereo not drawn) [Compound 12, 2-(4-(cyclopropylsulfonyl)-6-(difluoromethoxy)-1H-indazol-1-yl)-N-(1-methyl-1H-pyrazol-3-yl)-3-(tetrahydro-2H-pyran-4-yl)propanamide]: the EC50 was 1.58 to 3.16 µM. Moreover, the Emax under setting [1] is at most 90%.

Consider `O=C(Nc1ncc(F)s1)C(CC1CCOCC1)n1ncc2c(S(=O)(=O)C3CC3)cc(Cl)cc21` (stereo not drawn) [Compound 121, 2-(6-chloro-4-(cyclopropylsulfonyl)-1H-indazol-1-yl)-N-(5-fluorothiazol-2-yl)-3-(tetrahydro-2H-pyran-4-yl)propanamide], for which the EC50 is at most 0.316 µM. For the same compound, under setting [1], the Emax was 90 to 100%.

Turning to `Cn1ccc(NC(=O)C(CC2CCOCC2)n2ncc3c(S(=O)(=O)C4CC4)cc(N)nc32)n1` (stereo not drawn) [Compound 170, 2-(6-amino-4-(cyclopropylsulfonyl)-1H-pyrazolo[3,4-b]pyridin-1-yl)-N-(1-methyl-1H-pyrazol-3-yl)-3-(tetrahydro-2H-pyran-4-yl)propanamide], the EC50 is at least 15.8 µM. Besides, the Emax under setting [1] was at most 90%.

In the case of `COc1ccc2c(cnn2[C@@H](CC2CCOCC2)C(=O)Nc2ccn(C)n2)c1S(=O)(=O)C1CC1` [Compound 109, (S)-2-(4-(cyclopropylsulfonyl)-5-methoxy-1H-indazol-1-yl)-N-(1-methyl-1H-pyrazol-3-yl)-3-(tetrahydro-2H-pyran-4-yl)propanamide], the EC50 is at most 0.316 µM. Besides, the Emax under setting [1] was 101 to 105%.

Values taken from patent publication US8563730B2, “Pyrazole and fused pyrazole glucokinase activators” (Takeda San Diego, Inc., priority 2008, dated 2013).
